In assay [1] the target is T1, human nAChRα6-α3 chimera, in addition to β2 and β3^V273S subunits (Homo sapiens, UniProt P32297+Q15825).
T1 construct: expressed in transfected cells
In words: fluorescence-based calcium assay: inhibition of nicotine stimulated nAChRα6 activity (FLIPR). The note with it: HEK cell line stably expressing the receptor, 10 min pre-incubation, nicotine EC80, 10-point curve, duplicate wells. In a few lines: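 HEK cells stably expressing the human α6-α3 chimera with β2 and β3^V273S were loaded with calcium dye at 30° C. Compounds were pre-incubated for 10 min before nicotine at EC80, and the fluorescence change was read on a FLIPR. Ten-point half-log concentration-response, duplicate wells.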

In assay [2] the test system is tremulous jaw movements induced by tacrine in male C57BL/6J mice. The assay is described as follows: tacrine-induced tremulous jaw movements, mice. The class given is in vivo. The following applies: mouse; 10 mg/kg p.o.; tacrine 5 mg/kg i.p.; n=10/group; tremulous jaw movements relative to vehicle (100%). How it is done: (§1) Resting tremor is one of the classic symptoms of Parkinson's disease. These characteristic tremors can be modelled pharmacologically in preclinical models using cholinomimetics such as the acetylcholine esterase inhibitor, tacrine (5 mg/kg, i.p.) (Salamone et al, Prog Neurobiol 56: 591-611 1998) to induce tremulous jaw movement behaviours. These tremulous jaw movements are thought to arise from an imbalance between cholinergic and dopaminergic neurotransmission and are thought to mimic the imbalances in neurotransmission resulting from the dopamine loss seen in Parkinson's disease (Aosaki et al, Geriatr Gerontol Int 10: s148-s157 2010). These tremors can be reversed by agents increasing the dopamine tone, such as dopamine agonists (Salamone et al, Behav Brain Res 156: 173-179 2005).
The objective of these studies was to evaluate the effects of oral administration of Example Compounds on tremulous jaw movements induced by tacrine in male C57BL/6J mice or Sprague-Dawley rats. Animals were administered vehicle (0.5% methylcellulose, p.o.) or Example Compound (across a range of doses; 10 mg/kg, p.o. data shown) 15 to 60 minutes prior to behavioural testing (n=10/group). Tacrine (5 mg/kg, i.p.) was administered to all animals immediately before behavioural assessment commenced. For each animal the latency to the first tremulous jaw movement and the total duration of the tremulous jaw movements post tacrine administration were recorded.
illustrative data shown is percentage attenuation of tacrine-induced tremulous jaw movements relative to vehicle (100%). Each compound shown was tested at 10 mg/kg p.o.
(§2) Statistical significance was assessed using an unpaired student's t-test vs vehicle * p<0.05, ***p<0.001.

For assay [3], the system named is tremulous jaw movements induced by tacrine in Sprague-Dawley rats. The assay is described as follows: tacrine-induced tremulous jaw movements, rats. The class given is in vivo. The note with it: rat; 10 mg/kg p.o.; tacrine 5 mg/kg i.p.; n=10/group; tremulous jaw movements relative to vehicle (100%). The protocol: as §1
The objective of these studies was to evaluate the effects of oral administration of Example Compounds on tremulous jaw movements induced by tacrine in male C57BL/6J mice or Sprague-Dawley rats. […] For each animal the latency to the first tremulous jaw movement and the total duration of the tremulous jaw movements post tacrine administration were recorded. […]
as §2

The text below walks through data of patent US20240059677A1, “SUBSTITUTED PYRIMIDINE DERIVATIVES AS NICOTINIC ACETYLCHOLINESTERASE RECEPTOR ALPHA 6 MODULATOR” (priority 2020, published 2024).

Where two headings read alike, the source gives them in different places. Marks after values point to notes of the source that are not given here.

One may read the IC50 as the concentration at which inhibition is half-maximal.

T1 sequence (Q05901 25-458 V273S): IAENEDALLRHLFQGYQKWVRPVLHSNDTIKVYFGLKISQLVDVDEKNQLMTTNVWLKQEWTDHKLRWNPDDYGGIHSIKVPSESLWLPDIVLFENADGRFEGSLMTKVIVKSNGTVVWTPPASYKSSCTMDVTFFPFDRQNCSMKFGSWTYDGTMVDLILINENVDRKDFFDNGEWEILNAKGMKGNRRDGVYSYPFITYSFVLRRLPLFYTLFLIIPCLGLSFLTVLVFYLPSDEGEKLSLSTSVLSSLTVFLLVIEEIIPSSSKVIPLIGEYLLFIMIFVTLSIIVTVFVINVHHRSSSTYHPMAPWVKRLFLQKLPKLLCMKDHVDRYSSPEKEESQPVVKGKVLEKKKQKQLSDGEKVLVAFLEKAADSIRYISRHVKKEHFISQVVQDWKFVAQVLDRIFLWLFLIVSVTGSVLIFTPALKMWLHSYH
T1 sequence (P17787 26-502, stated change not applied, further chain): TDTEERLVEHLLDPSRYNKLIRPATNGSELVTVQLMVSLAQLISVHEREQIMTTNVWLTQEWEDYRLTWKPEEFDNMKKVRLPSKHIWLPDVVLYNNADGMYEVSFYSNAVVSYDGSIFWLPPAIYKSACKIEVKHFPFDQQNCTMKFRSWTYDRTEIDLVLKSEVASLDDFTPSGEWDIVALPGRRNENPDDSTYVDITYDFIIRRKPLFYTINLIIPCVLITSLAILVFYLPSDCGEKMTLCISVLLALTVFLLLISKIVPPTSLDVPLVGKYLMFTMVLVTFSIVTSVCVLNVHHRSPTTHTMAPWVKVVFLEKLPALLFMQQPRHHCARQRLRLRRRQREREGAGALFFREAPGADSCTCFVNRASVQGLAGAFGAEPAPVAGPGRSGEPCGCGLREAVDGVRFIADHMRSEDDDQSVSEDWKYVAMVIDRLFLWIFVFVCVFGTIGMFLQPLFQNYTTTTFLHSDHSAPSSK
T1 sequence (Q15825+P32297 fused with the stated changes): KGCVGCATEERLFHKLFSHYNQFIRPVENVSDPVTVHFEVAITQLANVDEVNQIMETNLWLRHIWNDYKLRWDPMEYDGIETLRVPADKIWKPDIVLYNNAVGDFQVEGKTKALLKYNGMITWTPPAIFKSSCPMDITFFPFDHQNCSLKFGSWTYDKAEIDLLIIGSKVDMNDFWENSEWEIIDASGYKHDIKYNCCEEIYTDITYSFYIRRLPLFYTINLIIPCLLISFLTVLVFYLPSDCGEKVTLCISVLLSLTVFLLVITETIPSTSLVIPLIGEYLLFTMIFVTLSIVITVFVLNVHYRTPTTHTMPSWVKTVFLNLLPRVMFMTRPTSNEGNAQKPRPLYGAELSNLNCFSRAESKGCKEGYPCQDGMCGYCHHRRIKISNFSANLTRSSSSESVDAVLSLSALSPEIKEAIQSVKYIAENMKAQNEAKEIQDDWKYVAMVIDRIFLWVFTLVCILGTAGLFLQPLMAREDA

On to `Cc1nc(NC[C@@H]2CCCN2)ncc1-c1ccc(F)cc1F` [Example 94b, (S)-5-(2,4-difluorophenyl)-4-methyl-N-(pyrrolidin-2-ylmethyl)pyrimidin-2-amine], for which the IC50 in assay [1] (read-out: IC50) was determined as 0.005 µM. Besides, the “% Decrease from vehicle or percentage relative to vehicle (100%), (mean ± SEM)” value in assay [2] is listed as 79.9 ± 7.2%.
For `CCN1CCC[C@H](Nc2ncc(-c3ccc(F)cc3F)c(C)n2)C1.O=C(O)/C=C/C(=O)O` (single isomer, unassigned) [Example 78b], in assay [1] (read-out: IC50), the 50% inhibitory concentration (IC50) worked out at 0.06 µM. Besides, the “% Decrease from vehicle or percentage relative to vehicle (100%), (mean ± SEM)” value in assay [2] is given as 23.8 ± 7.7*** %.
With `CC(C)N1CCC(Nc2ncc(-c3ccc(F)cc3F)c(C#N)n2)CC1` [Example 65, 5-(2,4-difluorophenyl)-2-((1-isopropylpiperidin-4-yl)amino)pyrimidine-4-carbonitrile], the half-maximal inhibitory concentration (IC50) in assay [1] (read-out: IC50) amounted to 0.084 µM. In addition, in assay [3], the “% Decrease from vehicle or percentage relative to vehicle (100%), (mean ± SEM)” value is 30.0 ± 12.8* %.
With `Cc1nc(NC[C@H]2CCCN2C)ncc1-c1ccc(F)cc1F` [Example 24b, (R)-5-(2,4-difluorophenyl)-4-methyl-N-((1-methylpyrrolidin-2-yl)methyl) pyrimidin-2-amine], in assay [1] (read-out: IC50), the IC50 amounted to 0.005 µM. Further, the “% Decrease from vehicle or percentage relative to vehicle (100%), (mean ± SEM)” value in assay [2] is 23.9 ± 3.8*** %.
For `Cc1nc(NCC2C(F)CCN2C)ncc1-c1ccc(F)cc1F` (single isomer, unassigned) [Example 96a, 5-(2,4-difluorophenyl)-N-((3-fluoro-1-methylpyrrolidin-2-yl)methyl)-4-methyl-pyrimidin-2-amine], the IC50 in assay [1] (read-out: IC50) is 0.151 µM.
As for `Cc1nc(N[C@H]2CCCNC2)ncc1-c1ccc(C(F)(F)F)cc1F` [Example 116, (S)-5-(2-fluoro-4-(trifluoromethyl)phenyl)-4-methyl-N-(3-piperidinyl) pyrimidin-2-amine], the IC50 in assay [1] (IC50 (μM)) was 0.127 µM.
On to `COc1ccc(-c2nnc(NC3CCCN(C(C)C)C3)nc2C)c(F)c1` (single isomer, unassigned) [Example 76b, 6-(2-fluoro-4-methoxyphenyl)-N-(1-isopropylpiperidin-3-yl)-5-methyl-1,2,4-triazin-3-amine], for which, in assay [1] (read-out: IC50), the IC50 was 0.107 µM.
Regarding `Cc1nc(NC(C)[C@H]2CCCN2)ncc1-c1ccc(C(F)(F)F)cc1F` (single isomer, unassigned) [Example 129b, 5-(2-fluoro-4-(trifluoromethyl)phenyl)-4-methyl-N-((1*S)-1-((2R)-pyrrolidin-2-yl)ethyl)pyrimidin-2-amine], the IC50 in assay [1] (read-out: IC50) amounted to 0.105 µM.
Take `COc1ccc(-c2cnc(NCC3CCCN3C)nc2C)c(F)c1` (single isomer, unassigned) [Example 28b, 5-(2-fluoro-4-methoxyphenyl)-4-methyl-N-((1-methylpyrrolidin-2-yl)methyl)pyrimidin-2-amine]: the concentration for half-maximal inhibition (IC50) in assay [1] (read-out: IC50) is 0.01 µM.
`CN(C)C1CCC(Nc2ncc(-c3ccc(F)cc3F)c(C#N)n2)C1` (single isomer, unassigned) [Example 58b, 5-(2,4-difluorophenyl)-2-((3-(dimethylamino)cyclopentyl)amino) pyrimidine-4-carbonitrile]: the IC50 in assay [1] (read-out: IC50) turned out to be 0.056 µM.
`CN(C)C1CCCC(Nc2ncc(-c3ccc(F)cc3)cn2)C1` (centres unmarked) [Example 7, N^1-(5-(4-fluorophenyl)pyrimidin-2-yl)-N^3,N^3-dimethylcyclohexane-1,3-diamine]: the half-inhibitory concentration (IC50) in assay [1] (read-out: IC50) was determined as 0.59 µM.
As to `Cc1nc(NC(C)C2CCN(C)C2)ncc1-c1ccc(F)cc1F` (single isomer, unassigned) [Example 64a, 5-(2,4-difluorophenyl)-4-methyl-N-(1-(1-methylpyrrolidin-3-yl)ethyl) pyrimidin-2-amine], the IC50 in assay [1] (read-out: IC50) came to 0.09 µM.
Take `COc1ccc(-c2cnc(NC3CCCC(N(C)C)C3)nc2C#N)c(F)c1` (single isomer, unassigned) [Example 56b, 2-((3-(dimethylamino)cyclohexyl)amino)-5-(2-fluoro-4-methoxyphenyl) pyrimidine-4-carbonitrile]: the half-maximal inhibitory concentration (IC50) in assay [1] (read-out: IC50) stood at 0.162 µM.
